ChEMBL document CHEMBL1201862, “PubChem BioAssay data set” (2004)
Where “and” joins values, the source holds several entries; their conditions need not be identical. Equal entries are not always repeated. Calls of active or inactive are those of the source.

Key:
[1] = molecular target: T1, Glycogen synthase kinase-3 alpha (Homo sapiens, UniProt P49840); test: Inhibition of Human GSK-3 alpha Activity Measured in Biochemical System Using Microfluidics - 2063-06_Inhibitor_Dose_DryPowder_Activity_Set2. [Related pubchem assays (depositor defined):AID2709]
T1 sequence (P49840 whole entry): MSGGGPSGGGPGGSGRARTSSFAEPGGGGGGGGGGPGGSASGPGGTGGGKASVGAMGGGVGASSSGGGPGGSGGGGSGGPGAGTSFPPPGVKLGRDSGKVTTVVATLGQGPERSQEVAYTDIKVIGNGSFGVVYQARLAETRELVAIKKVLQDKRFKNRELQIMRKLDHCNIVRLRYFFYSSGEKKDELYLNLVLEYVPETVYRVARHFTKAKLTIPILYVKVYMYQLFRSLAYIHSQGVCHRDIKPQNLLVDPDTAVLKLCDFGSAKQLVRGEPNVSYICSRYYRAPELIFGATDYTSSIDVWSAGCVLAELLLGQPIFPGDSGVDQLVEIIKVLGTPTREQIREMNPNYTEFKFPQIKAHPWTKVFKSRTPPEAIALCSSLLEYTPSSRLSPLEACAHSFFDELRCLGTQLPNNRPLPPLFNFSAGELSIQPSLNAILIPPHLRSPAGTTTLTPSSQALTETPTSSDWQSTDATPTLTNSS

[2] = molecular target: T2, Glycogen synthase kinase-3 beta (Homo sapiens, UniProt P49841); test: Inhibition of Human GSK-3 beta Activity Measured in Biochemical System Using Microfluidics - 2063-05_Inhibitor_Dose_DryPowder_Activity_Set2. [Related pubchem assays (depositor defined):AID2709]
T2 sequence (P49841 whole entry): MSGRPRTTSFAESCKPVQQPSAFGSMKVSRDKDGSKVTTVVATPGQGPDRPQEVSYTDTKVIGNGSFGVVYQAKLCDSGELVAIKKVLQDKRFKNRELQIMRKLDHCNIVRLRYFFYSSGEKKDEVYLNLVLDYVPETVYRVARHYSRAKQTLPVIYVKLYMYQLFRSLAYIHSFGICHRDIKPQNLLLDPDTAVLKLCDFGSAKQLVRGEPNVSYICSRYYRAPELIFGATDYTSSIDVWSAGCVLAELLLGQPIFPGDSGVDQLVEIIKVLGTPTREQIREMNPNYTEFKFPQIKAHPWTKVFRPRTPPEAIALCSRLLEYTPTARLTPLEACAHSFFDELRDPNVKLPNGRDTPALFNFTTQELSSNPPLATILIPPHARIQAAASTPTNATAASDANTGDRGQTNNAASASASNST

[3] = molecular target: T3, Cyclin-dependent kinase 5/CDK5 activator 1 (Homo sapiens, UniProt Q00535); test: human CDK5 activity blockade – biochemical, microfluidic mobility shift, dry powder, selectivity assay for GSK-3 alpha inhibitor project, dose response (AID 588430)
T3 sequence (Q00535 whole entry): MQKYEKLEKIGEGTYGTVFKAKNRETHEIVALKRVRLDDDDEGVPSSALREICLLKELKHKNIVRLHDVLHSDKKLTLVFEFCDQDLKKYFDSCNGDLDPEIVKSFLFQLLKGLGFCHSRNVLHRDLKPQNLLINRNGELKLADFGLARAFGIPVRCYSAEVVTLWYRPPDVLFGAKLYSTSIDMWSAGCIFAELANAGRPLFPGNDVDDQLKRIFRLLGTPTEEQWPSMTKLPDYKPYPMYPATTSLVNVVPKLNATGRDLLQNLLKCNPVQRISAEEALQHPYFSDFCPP
T3 sequence (Q15078 whole entry, further chain): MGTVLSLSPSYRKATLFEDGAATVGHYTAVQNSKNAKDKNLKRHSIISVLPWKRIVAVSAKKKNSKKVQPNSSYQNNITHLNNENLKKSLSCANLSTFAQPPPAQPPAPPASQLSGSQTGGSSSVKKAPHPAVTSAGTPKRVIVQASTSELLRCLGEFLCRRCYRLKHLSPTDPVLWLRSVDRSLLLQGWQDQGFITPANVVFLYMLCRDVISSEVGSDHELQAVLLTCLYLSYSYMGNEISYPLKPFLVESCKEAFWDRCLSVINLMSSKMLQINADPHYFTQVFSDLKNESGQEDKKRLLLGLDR

[4] = molecular target: T2, Glycogen synthase kinase-3 beta; test: inhibition of human GSK3B activity – biochemical, microfluidics, dry powder samples, set 2, dose response (AID 623989); assay type: functional
[5] = molecular target: T1, Glycogen synthase kinase-3 alpha; test: GSK3A enzyme blockers, homolog specificity check – biochemical, microfluidics, dry powder samples, set 2, selectivity assay for GSK3beta inhibitor project, dose response (AID 623978); assay type: functional
[6] = molecular target: T3, Cyclin-dependent kinase 5/CDK5 activator 1; test: inhibitors of human CDK5 activity – biochemical, microfluidic mobility shift, dry powder, set 2, selectivity assay for GSK3beta inhibitor project, dose response (AID 623979); assay type: functional
[7] = molecular target: T4, High affinity choline transporter 1 (Homo sapiens, UniProt Q9GZV3); test: human choline transporter blockers, potency – cell-based, 5-point CRC, membrane potential dye, dose response (AID 504840); assay type: functional
T4 sequence (Q9GZV3 whole entry): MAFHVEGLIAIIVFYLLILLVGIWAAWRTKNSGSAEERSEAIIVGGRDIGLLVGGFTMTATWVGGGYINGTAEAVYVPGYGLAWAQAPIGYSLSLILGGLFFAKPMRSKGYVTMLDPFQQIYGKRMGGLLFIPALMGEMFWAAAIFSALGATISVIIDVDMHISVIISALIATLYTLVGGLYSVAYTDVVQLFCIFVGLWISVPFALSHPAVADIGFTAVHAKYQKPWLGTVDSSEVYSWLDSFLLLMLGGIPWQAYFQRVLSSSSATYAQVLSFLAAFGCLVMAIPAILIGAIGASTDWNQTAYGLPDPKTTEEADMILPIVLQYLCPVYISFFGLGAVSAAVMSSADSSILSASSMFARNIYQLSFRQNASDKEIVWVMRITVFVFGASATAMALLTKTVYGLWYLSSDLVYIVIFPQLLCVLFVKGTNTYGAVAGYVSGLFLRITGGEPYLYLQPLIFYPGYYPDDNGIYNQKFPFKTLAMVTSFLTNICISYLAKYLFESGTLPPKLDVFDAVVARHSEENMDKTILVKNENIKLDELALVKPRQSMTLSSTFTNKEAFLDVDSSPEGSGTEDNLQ

[8] = molecular target: T4, High affinity choline transporter 1; test: human choline transporter blockers, potency – cell-based, 10-point CRC, membrane potential dye, dose response (AID 588401); assay type: functional;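 further: membrane potential dye fluorescence of choline-evoked depolarization via CHT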
[9] = molecular target: T4, High affinity choline transporter 1; test: human choline transporter radiolabel uptake blockers – cell-based, 3H-choline uptake, CHT LV-AA trafficking mutant, CRC, dose response (AID 602208); assay type: functional
[10] = molecular target: Mitogen-activated protein kinase kinase kinase 20 (Homo sapiens, UniProt Q9NYL2); assay type: functional
[11] = molecular target: T5, Receptor-type tyrosine-protein kinase FLT3 (Homo sapiens, UniProt P36888); assay type: functional;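 further: FLT3 was tested as one member of a kinome-wide kinase panel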
T5 sequence (P36888 whole entry): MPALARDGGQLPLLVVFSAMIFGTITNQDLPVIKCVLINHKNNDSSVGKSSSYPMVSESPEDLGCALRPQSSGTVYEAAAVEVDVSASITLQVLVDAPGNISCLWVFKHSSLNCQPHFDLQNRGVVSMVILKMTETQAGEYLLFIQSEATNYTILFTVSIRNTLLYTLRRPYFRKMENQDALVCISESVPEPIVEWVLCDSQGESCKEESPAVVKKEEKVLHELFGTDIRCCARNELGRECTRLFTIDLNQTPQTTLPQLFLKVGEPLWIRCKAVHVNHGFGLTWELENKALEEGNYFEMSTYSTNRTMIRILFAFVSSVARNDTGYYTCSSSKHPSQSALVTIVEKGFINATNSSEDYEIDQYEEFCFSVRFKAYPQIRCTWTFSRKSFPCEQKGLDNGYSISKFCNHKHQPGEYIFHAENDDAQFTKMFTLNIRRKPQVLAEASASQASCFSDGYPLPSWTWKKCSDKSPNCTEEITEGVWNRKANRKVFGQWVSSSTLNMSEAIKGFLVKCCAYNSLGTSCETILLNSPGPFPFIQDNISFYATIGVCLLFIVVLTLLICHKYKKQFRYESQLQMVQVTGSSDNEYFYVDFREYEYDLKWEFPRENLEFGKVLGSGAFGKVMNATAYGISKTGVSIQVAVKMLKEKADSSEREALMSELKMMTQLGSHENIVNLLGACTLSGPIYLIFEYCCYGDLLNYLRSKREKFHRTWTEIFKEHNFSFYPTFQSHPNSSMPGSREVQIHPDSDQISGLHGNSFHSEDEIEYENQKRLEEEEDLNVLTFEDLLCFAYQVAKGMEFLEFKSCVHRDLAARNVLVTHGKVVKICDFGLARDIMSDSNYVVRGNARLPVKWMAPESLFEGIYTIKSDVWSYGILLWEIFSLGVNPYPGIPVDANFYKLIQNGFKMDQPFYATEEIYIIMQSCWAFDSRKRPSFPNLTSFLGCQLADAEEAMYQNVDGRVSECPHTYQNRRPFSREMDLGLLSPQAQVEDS

[12] = molecular target: Casein kinase I isoform delta (Homo sapiens, UniProt P48730); assay type: functional;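 further: measured as one member (CSNK1D) of a kinome panel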
Chain of Casein kinase I isoform delta (P48730 whole entry, canonical isoform): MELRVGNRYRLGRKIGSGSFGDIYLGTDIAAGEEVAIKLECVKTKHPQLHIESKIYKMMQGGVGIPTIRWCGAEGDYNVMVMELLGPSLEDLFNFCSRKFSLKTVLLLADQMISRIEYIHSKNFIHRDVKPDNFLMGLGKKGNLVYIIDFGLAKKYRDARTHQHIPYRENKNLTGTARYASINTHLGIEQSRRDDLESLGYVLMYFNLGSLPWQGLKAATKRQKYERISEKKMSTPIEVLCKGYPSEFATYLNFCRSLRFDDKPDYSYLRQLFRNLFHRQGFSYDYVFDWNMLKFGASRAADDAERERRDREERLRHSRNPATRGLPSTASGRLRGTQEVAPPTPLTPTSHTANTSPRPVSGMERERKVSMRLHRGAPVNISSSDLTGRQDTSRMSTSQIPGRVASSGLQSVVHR

[13] = molecular target: Aurora kinase B (Homo sapiens, UniProt Q96GD4); assay type: functional
Chain of Aurora kinase B (Q96GD4 whole entry): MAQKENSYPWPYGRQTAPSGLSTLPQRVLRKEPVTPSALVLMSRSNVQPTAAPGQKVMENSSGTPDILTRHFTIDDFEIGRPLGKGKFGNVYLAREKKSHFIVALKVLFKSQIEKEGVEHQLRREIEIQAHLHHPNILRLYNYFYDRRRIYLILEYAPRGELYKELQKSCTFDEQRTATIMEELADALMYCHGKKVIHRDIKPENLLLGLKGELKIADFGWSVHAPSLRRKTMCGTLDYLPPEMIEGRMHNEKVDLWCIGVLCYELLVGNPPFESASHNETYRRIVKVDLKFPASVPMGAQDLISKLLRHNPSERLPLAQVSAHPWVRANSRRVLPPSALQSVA

[14] = molecular target: Mitogen-activated protein kinase kinase kinase kinase 5 (Homo sapiens, UniProt Q9Y4K4); assay type: functional;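 further: measured as one member of a kinome-spanning kinase panel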
Chain of Mitogen-activated protein kinase kinase kinase kinase 5 (Q9Y4K4 whole entry): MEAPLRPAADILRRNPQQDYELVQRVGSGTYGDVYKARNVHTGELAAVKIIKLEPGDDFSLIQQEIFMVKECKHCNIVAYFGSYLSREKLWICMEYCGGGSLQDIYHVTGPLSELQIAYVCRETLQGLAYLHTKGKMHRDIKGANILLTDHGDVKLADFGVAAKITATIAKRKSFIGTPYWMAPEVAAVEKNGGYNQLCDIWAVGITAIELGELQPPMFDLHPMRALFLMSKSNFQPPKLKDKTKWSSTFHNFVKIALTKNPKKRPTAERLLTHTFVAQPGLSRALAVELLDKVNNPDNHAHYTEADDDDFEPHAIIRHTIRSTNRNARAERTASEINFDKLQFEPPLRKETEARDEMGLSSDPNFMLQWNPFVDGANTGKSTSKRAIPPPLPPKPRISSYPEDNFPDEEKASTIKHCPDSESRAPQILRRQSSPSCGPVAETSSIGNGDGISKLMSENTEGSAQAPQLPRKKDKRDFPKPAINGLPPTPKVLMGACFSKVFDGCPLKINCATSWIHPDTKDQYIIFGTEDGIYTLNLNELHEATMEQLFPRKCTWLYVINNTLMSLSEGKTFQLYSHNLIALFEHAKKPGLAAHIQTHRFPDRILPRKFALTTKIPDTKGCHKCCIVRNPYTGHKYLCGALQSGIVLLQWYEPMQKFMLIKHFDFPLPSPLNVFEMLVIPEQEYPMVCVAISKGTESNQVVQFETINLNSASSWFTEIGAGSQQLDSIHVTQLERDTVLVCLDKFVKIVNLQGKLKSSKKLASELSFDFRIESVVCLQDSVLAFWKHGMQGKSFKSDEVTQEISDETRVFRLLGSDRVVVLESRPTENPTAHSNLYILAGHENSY

[15] = molecular target: Dual specificity protein kinase CLK4 (Homo sapiens, UniProt Q9HAZ1); assay type: functional
Chain of Dual specificity protein kinase CLK4 (Q9HAZ1 whole entry): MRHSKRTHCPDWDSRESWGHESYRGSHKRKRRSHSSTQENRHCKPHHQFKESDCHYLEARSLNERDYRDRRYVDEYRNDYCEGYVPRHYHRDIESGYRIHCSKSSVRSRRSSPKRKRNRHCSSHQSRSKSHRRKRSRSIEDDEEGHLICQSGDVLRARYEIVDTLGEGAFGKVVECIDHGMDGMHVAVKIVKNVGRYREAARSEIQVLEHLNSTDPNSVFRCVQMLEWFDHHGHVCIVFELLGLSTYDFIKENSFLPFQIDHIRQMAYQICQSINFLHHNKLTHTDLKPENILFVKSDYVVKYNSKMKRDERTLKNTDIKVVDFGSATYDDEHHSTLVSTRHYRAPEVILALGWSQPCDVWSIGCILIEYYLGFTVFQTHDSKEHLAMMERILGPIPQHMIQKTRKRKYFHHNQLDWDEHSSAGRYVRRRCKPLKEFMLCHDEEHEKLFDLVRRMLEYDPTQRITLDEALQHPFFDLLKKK

[16] = molecular target: Mitogen-activated protein kinase kinase kinase kinase 4 (Homo sapiens, UniProt O95819); assay type: functional
Chain of Mitogen-activated protein kinase kinase kinase kinase 4 (O95819 whole entry): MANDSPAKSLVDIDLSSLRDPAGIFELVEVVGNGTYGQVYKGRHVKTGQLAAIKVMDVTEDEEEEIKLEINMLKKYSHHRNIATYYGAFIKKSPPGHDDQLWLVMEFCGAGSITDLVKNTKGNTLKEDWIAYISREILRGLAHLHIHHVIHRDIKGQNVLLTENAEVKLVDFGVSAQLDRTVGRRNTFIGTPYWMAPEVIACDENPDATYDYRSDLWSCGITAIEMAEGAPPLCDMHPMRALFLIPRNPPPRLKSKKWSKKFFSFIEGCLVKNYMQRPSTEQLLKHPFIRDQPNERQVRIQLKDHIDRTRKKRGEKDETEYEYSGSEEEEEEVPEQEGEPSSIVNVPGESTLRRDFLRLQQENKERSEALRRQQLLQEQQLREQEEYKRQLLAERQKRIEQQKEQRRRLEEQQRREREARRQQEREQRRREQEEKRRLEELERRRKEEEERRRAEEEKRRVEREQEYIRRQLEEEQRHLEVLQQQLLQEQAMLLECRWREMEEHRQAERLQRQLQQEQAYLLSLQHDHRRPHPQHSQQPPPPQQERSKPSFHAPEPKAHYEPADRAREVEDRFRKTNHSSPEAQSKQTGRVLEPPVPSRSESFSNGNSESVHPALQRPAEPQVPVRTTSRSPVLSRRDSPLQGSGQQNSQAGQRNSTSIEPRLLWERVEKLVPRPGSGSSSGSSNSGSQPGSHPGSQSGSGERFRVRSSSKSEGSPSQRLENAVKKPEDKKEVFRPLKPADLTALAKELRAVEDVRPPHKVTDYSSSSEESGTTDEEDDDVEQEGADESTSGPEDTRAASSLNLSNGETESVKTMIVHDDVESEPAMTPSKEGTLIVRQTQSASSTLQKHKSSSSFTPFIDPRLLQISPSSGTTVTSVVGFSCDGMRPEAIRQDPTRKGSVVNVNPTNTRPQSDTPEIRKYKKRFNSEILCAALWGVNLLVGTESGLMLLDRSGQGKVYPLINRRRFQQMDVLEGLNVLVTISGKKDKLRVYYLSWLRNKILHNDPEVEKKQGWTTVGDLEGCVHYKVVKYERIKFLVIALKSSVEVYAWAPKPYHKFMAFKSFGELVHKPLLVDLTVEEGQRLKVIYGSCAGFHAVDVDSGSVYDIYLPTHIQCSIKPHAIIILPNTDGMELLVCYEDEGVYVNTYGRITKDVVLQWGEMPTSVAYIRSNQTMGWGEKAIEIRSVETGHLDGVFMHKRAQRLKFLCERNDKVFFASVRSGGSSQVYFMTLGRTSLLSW

O=C1Nc2ccc3ncsc3c2/C1=C/Nc1ccc(S(=O)(=O)Nc2ccccn2)cc1
active: AC50 [1] 144 nM and 206 nM | AC50 [2] 12.4 nM and < 16 nM | AC50 [3] < 10 nM and < 16 nM | AC50 [4] 11.3 nM and < 30 nM | AC50 [5] 121 nM and 281 nM | AC50 [6] < 23 nM

CCCN1CCC(Oc2cccc(C(=O)NCCc3ccccc3)c2)CC1
active: IC50 [7] 10 µM | IC50 [8] 4.22 µM | IC50 [9] 3.76 µM

c1cncc(Nc2ncc(-c3ccncn3)c(-c3ccco3)n2)c1
active: Ki [10] 5.01 µM | Ki [11] 1.26 µM | Ki [12] 2 µM | Ki [13] 2.51 µM | Ki [14] 3.98 µM | Ki [15] 3.16 µM | Ki [16] 6.31 µM
